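All cell lines were grown in 96-well plates and treated with compound for 48 hours. GI50 is the concentration that inhibits growth by half. TGI: concentration producing complete growth inhibition.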
Legend:
Assay in all cases: NCI-60 cell line screen, 48 h
786-0 renal = test system: 786-0 renal
A498 renal = test system: A498 renal
A549 NSCLC = test system: A549 NSCLC
ACHN renal = test system: ACHN renal
BT-549 breast = test system: BT-549 breast
CCRF-CEM leukemia = test system: CCRF-CEM leukemia
COLO 205 colon = test system: COLO 205 colon
DU-145 prostate = test system: DU-145 prostate
EKVX NSCLC = test system: EKVX NSCLC
HCC-2998 colon = test system: HCC-2998 colon
HCT-15 colon = test system: HCT-15 colon
HL-60(TB) leukemia = test system: HL-60(TB) leukemia
HOP-62 NSCLC = test system: HOP-62 NSCLC
HOP-92 NSCLC = test system: HOP-92 NSCLC
HS 578T breast = test system: HS 578T breast
HT29 colon = test system: HT29 colon
IGROV1 ovarian = test system: IGROV1 ovarian
K-562 leukemia = test system: K-562 leukemia
KM12 colon = test system: KM12 colon
LOX IMVI melanoma = test system: LOX IMVI melanoma
M14 melanoma = test system: M14 melanoma
MALME-3M melanoma = test system: MALME-3M melanoma
MDA-MB-231 breast = test system: MDA-MB-231 breast
MDA-MB-435 = test system: MDA-MB-435
MOLT-4 leukemia = test system: MOLT-4 leukemia
NCI-H226 lung = test system: NCI-H226 lung
NCI-H23 lung = test system: NCI-H23 lung
NCI-H460 lung = test system: NCI-H460 lung
NCI-H522 lung = test system: NCI-H522 lung
NCI/ADR-RES ovarian = test system: NCI/ADR-RES ovarian
OVCAR-3 ovarian = test system: OVCAR-3 ovarian
OVCAR-4 ovarian = test system: OVCAR-4 ovarian
OVCAR-5 ovarian = test system: OVCAR-5 ovarian
OVCAR-8 ovarian = test system: OVCAR-8 ovarian
PC-3 prostate = test system: PC-3 prostate
RPMI-8226 leukemia = test system: RPMI-8226 leukemia
RXF 393 renal = test system: RXF 393 renal
SF-268 CNS = test system: SF-268 CNS
SF-295 CNS = test system: SF-295 CNS
SF-539 CNS = test system: SF-539 CNS
SK-MEL-2 melanoma = test system: SK-MEL-2 melanoma
SK-MEL-28 melanoma = test system: SK-MEL-28 melanoma
SK-MEL-5 melanoma = test system: SK-MEL-5 melanoma
SK-OV-3 ovarian = test system: SK-OV-3 ovarian
SN12C renal = test system: SN12C renal
SNB-19 CNS = test system: SNB-19 CNS
SNB-75 CNS = test system: SNB-75 CNS
SR leukemia = test system: SR leukemia
SW-620 colon = test system: SW-620 colon
T-47D breast = test system: T-47D breast
TK-10 renal = test system: TK-10 renal
U251 CNS = test system: U251 CNS
UACC-257 melanoma = test system: UACC-257 melanoma
UACC-62 melanoma = test system: UACC-62 melanoma
UO-31 renal = test system: UO-31 renal

C=C1C(=O)O[C@H]2[C@H]1CC/C(COC(=O)CCCCCCC(=O)OC/C1=C/CC[C@@]3(C)O[C@H]3[C@H]3OC(=O)C(=C)[C@@H]3CC1)=C\CC[C@@]1(C)O[C@@H]21
GI50 (786-0 renal): 1.84 µM
TGI (786-0 renal): 3.87 µM
GI50 (A498 renal): 15.3 µM
TGI (A498 renal): 30.5 µM
GI50 (A549 NSCLC): 16.9 µM
TGI (A549 NSCLC): 45 µM
GI50 (ACHN renal): 2.56 µM
TGI (ACHN renal): 8.98 µM
GI50 (BT-549 breast): 1.81 µM
TGI (BT-549 breast): 4.33 µM
GI50 (CCRF-CEM leukemia): 1.11 µM
TGI (CCRF-CEM leukemia): 5.89 µM
GI50 (COLO 205 colon): 2 µM
TGI (COLO 205 colon): 4.26 µM
GI50 (DU-145 prostate): 5.59 µM
TGI (DU-145 prostate): 17.7 µM
GI50 (EKVX NSCLC): 3.66 µM
TGI (EKVX NSCLC): 16.1 µM
GI50 (HCC-2998 colon): 3.76 µM
TGI (HCC-2998 colon): 12.5 µM
GI50 (HCT-15 colon): 2.63 µM
TGI (HCT-15 colon): 10.1 µM
GI50 (HL-60(TB) leukemia): 1.5 µM
TGI (HL-60(TB) leukemia): 4.23 µM
GI50 (HOP-62 NSCLC): 6.69 µM
TGI (HOP-62 NSCLC): 22.9 µM
GI50 (HOP-92 NSCLC): 2.24 µM
TGI (HOP-92 NSCLC): 8.14 µM
GI50 (HS 578T breast): 2.3 µM
TGI (HS 578T breast): 8.7 µM
GI50 (HT29 colon): 2.41 µM
TGI (HT29 colon): 4.9 µM
GI50 (IGROV1 ovarian): 2.91 µM
TGI (IGROV1 ovarian): 10.5 µM
GI50 (K-562 leukemia): 2.73 µM
TGI (K-562 leukemia): 11.1 µM
GI50 (KM12 colon): 3.84 µM
TGI (KM12 colon): 16.9 µM
GI50 (LOX IMVI melanoma): 1.58 µM
TGI (LOX IMVI melanoma): 3.12 µM
GI50 (M14 melanoma): 2.48 µM
TGI (M14 melanoma): 8.55 µM
GI50 (MALME-3M melanoma): 2.55 µM
TGI (MALME-3M melanoma): 7.05 µM
GI50 (MDA-MB-231 breast): 2.28 µM
TGI (MDA-MB-231 breast): 5.94 µM
GI50 (MDA-MB-435): 3.33 µM
TGI (MDA-MB-435): 14.2 µM
GI50 (MOLT-4 leukemia): 2.4 µM
TGI (MOLT-4 leukemia): 9.93 µM
GI50 (NCI-H226 lung): 2.39 µM
TGI (NCI-H226 lung): 6.65 µM
GI50 (NCI-H23 lung): 2.94 µM
TGI (NCI-H23 lung): 12.6 µM
GI50 (NCI-H460 lung): 5.36 µM
TGI (NCI-H460 lung): 23.9 µM
GI50 (NCI-H522 lung): 1.92 µM
TGI (NCI-H522 lung): 3.45 µM
GI50 (NCI/ADR-RES ovarian): 4.26 µM
TGI (NCI/ADR-RES ovarian): 29.6 µM
GI50 (OVCAR-3 ovarian): 2.55 µM
TGI (OVCAR-3 ovarian): 10 µM
GI50 (OVCAR-4 ovarian): 3.23 µM
TGI (OVCAR-4 ovarian): 13.8 µM
GI50 (OVCAR-5 ovarian): 2.54 µM
TGI (OVCAR-5 ovarian): 7.5 µM
GI50 (OVCAR-8 ovarian): 3 µM
TGI (OVCAR-8 ovarian): 10.3 µM
GI50 (PC-3 prostate): 2.74 µM
TGI (PC-3 prostate): 7.98 µM
GI50 (RPMI-8226 leukemia): 2.27 µM
TGI (RPMI-8226 leukemia): 6.42 µM
GI50 (RXF 393 renal): 1.61 µM
TGI (RXF 393 renal): 3.33 µM
GI50 (SF-268 CNS): 3.51 µM
TGI (SF-268 CNS): 14.3 µM
GI50 (SF-295 CNS): 10.8 µM
TGI (SF-295 CNS): 24.7 µM
GI50 (SF-539 CNS): 2.52 µM
TGI (SF-539 CNS): 7 µM
GI50 (SK-MEL-2 melanoma): 12.6 µM
TGI (SK-MEL-2 melanoma): 29.7 µM
GI50 (SK-MEL-28 melanoma): 2.95 µM
TGI (SK-MEL-28 melanoma): 10.2 µM
GI50 (SK-MEL-5 melanoma): 4.83 µM
TGI (SK-MEL-5 melanoma): 16.6 µM
GI50 (SK-OV-3 ovarian): 35.9 µM
TGI (SK-OV-3 ovarian): > 100 µM
GI50 (SN12C renal): 2.9 µM
TGI (SN12C renal): 11.2 µM
GI50 (SNB-19 CNS): 7.17 µM
TGI (SNB-19 CNS): 24.1 µM
GI50 (SNB-75 CNS): 12.9 µM
TGI (SNB-75 CNS): 36.6 µM
GI50 (SR leukemia): 1.51 µM
TGI (SR leukemia): 9.88 µM
GI50 (SW-620 colon): 2.18 µM
TGI (SW-620 colon): 6.24 µM
GI50 (T-47D breast): 3.48 µM
TGI (T-47D breast): 10.8 µM
GI50 (TK-10 renal): 3.46 µM
TGI (TK-10 renal): 9.42 µM
GI50 (U251 CNS): 2.96 µM
TGI (U251 CNS): 10.3 µM
GI50 (UACC-257 melanoma): 2.1 µM
TGI (UACC-257 melanoma): 6.22 µM
GI50 (UACC-62 melanoma): 5.47 µM
TGI (UACC-62 melanoma): 20.2 µM
GI50 (UO-31 renal): 1.58 µM
TGI (UO-31 renal): 4.37 µM

Source: PubChem BioAssay (NCI)
